Among the test systems are MDA-MB-231 breast; HOP-92 NSCLC; OVCAR-3 ovarian; SNB-19 CNS; A549 NSCLC; MDA-MB-435; NCI-H460 lung; DU-145 prostate; CAKI-1 renal; HCT-116 colon.
Holding throughout (assay): NCI-60 cell line screen, 48 h

The structures appear in SMILES notation. Where “and” joins values, the source holds several entries; their conditions need not be identical. Equal entries are not always repeated.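 All cell lines were grown in 96-well plates and treated with compound for 48 hours. The concentration for 50% growth inhibition is given as GI50. TGI: total growth inhibition.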

As for `S=C1Nc2ccc(Cl)cc2C2(c3ccccc3)N3CCN=C3NN12` (configuration not stated), the GI50 with MDA-MB-231 breast is 32.5 µM; in the assay on HOP-92 NSCLC, 32.3 µM; in the assay on OVCAR-3 ovarian, 25.7 µM; with SNB-19 CNS, 36.9 µM; in the assay with A549 NSCLC, over 100 µM; in the assay on MDA-MB-435, 43.2 µM. Moreover, the GI50 was 23.7 µM in the assay with NCI-H460 lung, 40 µM with DU-145 prostate, 48.8 µM with CAKI-1 renal and 29.4 µM with HCT-116 colon. Also, the TGI with MDA-MB-231 breast was over 100 µM; in the assay on HOP-92 NSCLC it was over 100 µM; with OVCAR-3 ovarian it was 55.2 µM; with SNB-19 CNS it was over 100 µM; in the assay with A549 NSCLC, over 100 µM; in the assay with MDA-MB-435 it was over 100 µM. Moreover, the TGI with NCI-H460 lung is 74.7 µM; with DU-145 prostate, over 100 µM; in the assay with CAKI-1 renal it was over 100 µM; in the assay with HCT-116 colon, over 100 µM.

Regarding `O=Nc1ccc2ccccc2c1O`, the GI50 is 10 µM with MDA-MB-231 breast; 13.4 µM in the assay with HOP-92 NSCLC; 1.9 µM with OVCAR-3 ovarian; 15 µM in the assay with SNB-19 CNS; 6.2 µM in the assay on A549 NSCLC; 2.31 µM in the assay with MDA-MB-435. Further, the GI50 in the assay with NCI-H460 lung was 15.5 µM; in the assay with DU-145 prostate it was 10.4 µM; in the assay with CAKI-1 renal, 3.14 µM; in the assay on HCT-116 colon, 2.6 µM. Further, the TGI in the assay on MDA-MB-231 breast is 25.1 µM; in the assay on HOP-92 NSCLC it was 27.3 µM; in the assay with OVCAR-3 ovarian, 5.01 µM; in the assay with SNB-19 CNS it was 28.4 µM; with A549 NSCLC it was 19.6 µM; in the assay on MDA-MB-435, 4.53 µM. Besides, the TGI with NCI-H460 lung came out at 36.6 µM; with DU-145 prostate, 22.7 µM; with CAKI-1 renal, 19.3 µM; with HCT-116 colon, 7.36 µM.

Turning to `N#CC1=C(N)NC(=O)NC12Nc1ccccc1S2` (configuration not stated), the GI50 is 10.4 µM in the assay with MDA-MB-231 breast; 91.3 µM with HOP-92 NSCLC; 26.8 µM with OVCAR-3 ovarian; 44.5 µM with SNB-19 CNS; 4.27 µM in the assay on A549 NSCLC; 31.7 µM in the assay with MDA-MB-435. Moreover, the GI50 is 23.6 µM in the assay with NCI-H460 lung, 12.5 µM in the assay on DU-145 prostate, 30.1 µM in the assay with CAKI-1 renal and 18.5 µM with HCT-116 colon. In addition, the TGI is 31.2 µM in the assay on MDA-MB-231 breast; over 100 µM in the assay with HOP-92 NSCLC; over 59.9 µM with OVCAR-3 ovarian; over 100 µM in the assay on SNB-19 CNS; over 40.4 µM in the assay with A549 NSCLC; over 88.4 µM in the assay with MDA-MB-435. In addition, the TGI is over 70.9 µM in the assay with NCI-H460 lung, 35.3 µM in the assay with DU-145 prostate, over 72.6 µM in the assay on CAKI-1 renal and 44 µM with HCT-116 colon.

Consider `CO[C@@H]1/C=C(C)/C=C/[C@@H](C)/C=C(\C)C(=O)OC(/C(C)=C/C=C(\C)CNC(=O)[C@H](CO)NC=O)[C@@H](C)/C=C/C=C/[C@H](OC)CC/C=C(C)/C=C/C1` (some centres not stated), for which the GI50 was 0.292 µM with MDA-MB-231 breast; under 0.005 µM in the assay with HOP-92 NSCLC; under 0.005 µM in the assay on OVCAR-3 ovarian; 0.303 µM in the assay on SNB-19 CNS; 0.00881 µM in the assay with A549 NSCLC; under 0.005 µM with MDA-MB-435. For the same compound, the GI50 is under 0.005 µM in the assay with NCI-H460 lung, 0.169 µM with DU-145 prostate, under 0.005 µM in the assay with CAKI-1 renal and under 0.005 µM with HCT-116 colon. In addition, the TGI with HOP-92 NSCLC was 0.0852 µM; with OVCAR-3 ovarian, 0.605 µM; in the assay on SNB-19 CNS, 9.12 µM; in the assay with A549 NSCLC, 0.0242 µM; in the assay with MDA-MB-435 it was under 0.005 µM; in the assay on NCI-H460 lung, 5.81 µM. For the same compound, the results for the TGI in the assay on DU-145 prostate, with CAKI-1 renal and in the assay on HCT-116 colon were 14.5 µM, 0.592 µM and 6.11 µM, respectively.

With `CC(=O)O/N=C1/C(c2c(O)[nH]c3cc(Br)ccc23)=Nc2ccccc21`, the GI50 was 1.53 µM with MDA-MB-231 breast; 1.93 µM in the assay on HOP-92 NSCLC; 0.771 µM with OVCAR-3 ovarian; 4.26 µM with SNB-19 CNS; 1.48 µM in the assay on A549 NSCLC; 1.63 µM in the assay with MDA-MB-435. Moreover, the GI50 in the assay on NCI-H460 lung is 1.24 µM; in the assay with DU-145 prostate it was 1.44 µM; in the assay with CAKI-1 renal, 0.275 µM; in the assay on HCT-116 colon, 1.05 µM. In addition, the TGI with MDA-MB-231 breast turned out to be 3.77 µM; in the assay on HOP-92 NSCLC, 5.35 µM; with OVCAR-3 ovarian, 2.14 µM; in the assay on SNB-19 CNS it was 11.1 µM; with A549 NSCLC, 3.47 µM; in the assay with MDA-MB-435, 3.2 µM. For the same compound, the TGI in the assay with NCI-H460 lung was determined as 3.33 µM; in the assay on DU-145 prostate it was 3.2 µM; with CAKI-1 renal, 2.04 µM; in the assay on HCT-116 colon, 2.67 µM.

In the case of `O=C(CCl)N1c2ccccc2Sc2ccc3ccccc3c21`, the GI50 is 1.64 µM in the assay on MDA-MB-231 breast; 1.16 µM in the assay with HOP-92 NSCLC; 1.36 µM with OVCAR-3 ovarian; 1.58 µM in the assay on SNB-19 CNS; 1.98 µM in the assay on A549 NSCLC; 1.46 µM in the assay with MDA-MB-435. In addition, the GI50 was 1.89 µM with NCI-H460 lung, 1.53 µM with DU-145 prostate, 0.498 µM with CAKI-1 renal and 0.652 µM in the assay with HCT-116 colon. Also, the TGI in the assay with MDA-MB-231 breast is 3.14 µM; with HOP-92 NSCLC, 2.51 µM; with OVCAR-3 ovarian, 2.72 µM; with SNB-19 CNS, 3.09 µM; in the assay with A549 NSCLC, 4.75 µM; in the assay with MDA-MB-435 it was 3.01 µM. The TGI with NCI-H460 lung is 3.82 µM; in the assay with DU-145 prostate, 2.9 µM; in the assay with CAKI-1 renal, 0.95 µM; in the assay with HCT-116 colon it was 2.06 µM.

As to `COc1cc2c[n+](C)c3c4ccccc4ccc3c2cc1OC` (tested in a mixture with another compound), the GI50 in the assay on MDA-MB-231 breast was 10.3 µM; with HOP-92 NSCLC, 5.25 µM; in the assay on OVCAR-3 ovarian it was 1.64 µM; in the assay on SNB-19 CNS, 0.964 µM; in the assay with MDA-MB-435, 8.92 µM; in the assay with NCI-H460 lung, 2.96 µM. The values for the GI50 in the assay with DU-145 prostate and in the assay with HCT-116 colon were 13.5 µM and 2.55 µM, respectively. The TGI with MDA-MB-231 breast is 9.2 µM and 25.6 µM; in the assay with HOP-92 NSCLC, 28.6 µM; in the assay with OVCAR-3 ovarian, 7.41 µM and 21.4 µM; in the assay with SNB-19 CNS, 25.1 µM; in the assay with A549 NSCLC, 39.3 µM; in the assay with MDA-MB-435 it was 21.5 µM. In addition, the TGI was 31.7 µM in the assay with NCI-H460 lung, 69.6 µM in the assay with DU-145 prostate, over 83 µM with CAKI-1 renal and 27.2 µM in the assay on HCT-116 colon.

Take `C#Cc1c(C(N)=O)ncn1C1OC(COP(=O)(OCc2ccc([N+](=O)[O-])o2)N(C)CCCCCl)C(O)C1O` (configuration not stated): the GI50 in the assay with MDA-MB-231 breast is over 100 µM; in the assay on HOP-92 NSCLC, 51.2 µM; in the assay with OVCAR-3 ovarian it was 15.1 µM; with SNB-19 CNS, 51.7 µM; in the assay with A549 NSCLC, 28.5 µM; in the assay with MDA-MB-435, 46.2 µM. Also, the GI50 was 34.1 µM with NCI-H460 lung, 7.83 µM in the assay on DU-145 prostate, 47.9 µM in the assay on CAKI-1 renal and 38.2 µM in the assay on HCT-116 colon. Moreover, the TGI was over 100 µM in the assay with MDA-MB-231 breast; over 100 µM in the assay with HOP-92 NSCLC; 63.5 µM in the assay with OVCAR-3 ovarian; over 100 µM in the assay with SNB-19 CNS; over 100 µM in the assay on A549 NSCLC; over 100 µM in the assay on MDA-MB-435. Further, the TGI with NCI-H460 lung, with DU-145 prostate, in the assay with CAKI-1 renal and with HCT-116 colon was over 100 µM throughout.

On to `COc1ccc2c(c1)C(=O)/C(=C/c1ncc([N+](=O)[O-])n1C)O2`, for which the GI50 in the assay with MDA-MB-231 breast is 0.299 µM; in the assay with HOP-92 NSCLC it was 1.23 µM; in the assay with OVCAR-3 ovarian, 1.3 µM; in the assay on SNB-19 CNS it was 1.26 µM; in the assay on A549 NSCLC, 2.18 µM; in the assay on MDA-MB-435, 0.161 µM. Further, the GI50 was 0.934 µM in the assay with NCI-H460 lung, 0.868 µM in the assay with DU-145 prostate, 0.23 µM in the assay with CAKI-1 renal and 0.176 µM in the assay with HCT-116 colon. The TGI turned out to be 0.826 µM with MDA-MB-231 breast; 4.51 µM with HOP-92 NSCLC; 5.11 µM in the assay on OVCAR-3 ovarian; 6.08 µM in the assay with SNB-19 CNS; 6.28 µM in the assay on A549 NSCLC; 0.323 µM with MDA-MB-435. Moreover, the TGI in the assay on NCI-H460 lung was found to be 7.38 µM; in the assay on DU-145 prostate it was 2.98 µM; in the assay on CAKI-1 renal, 0.617 µM; in the assay with HCT-116 colon, 0.48 µM.

Source of the values: PubChem BioAssay (NCI).
